Legend:
[1] = tested on: Laodelphax striatellus; assay: Insecticidal test on Laodelphax striatellus (rice seedling dip); assay type: in vivo; details: 192 h, rice seedlings dipped 30 seconds, 3rd-instar larvae, 8 days after inoculation, read-out: insecticidal efficacy (corrected mortality rate) activity level
From the text: Insecticidal Test on Laodelphax striatellus
The oxime group-containing quinoline compounds represented by the general formula (1) of the present invention or salts thereof were separately dispersed in water and diluted to 500 ppm. Rice plant seedlings (variety: Nihonbare) were dipped in the agrochemical dispersions for 30 seconds. After air-dried, each seedling was put into a separate glass test tube and inoculated with ten 3rd-instar larvae of Laodelphax striatellus, and then the glass test tubes were capped with cotton plugs. At 8 days after the inoculation, the numbers of surviving larvae and dead larvae were counted, the corrected mortality rate was calculated according to the formula shown below, and the insecticidal efficacy was evaluated according to the criteria shown below. Corrected mortality rate (%)=100×(Survival rate in a non-treatment plot−Survival rate in a treatment plot)/Survival rate in a non-treatment plot [Math. 2] Criteria A: the corrected mortality rate is 100%. B: the corrected mortality rate is 90 to 99%. C: the corrected mortality rate is 80 to 89%. D: the corrected mortality rate is 50 to 79%.

[2] = tested on: Plutella xylostella; assay: Insecticidal test on Plutella xylostella (dip of Chinese cabbage seedlings with laid eggs); assay type: in vivo; details: 144 h, seedlings with laid eggs dipped about 30 seconds, 25° C., 6 days after dip treatment, criteria of Test Example 2, read-out: insecticidal efficacy (corrected mortality rate) activity level
From the text: Insecticidal Test on Plutella xylostella
Adults of Plutella xylostella were released onto Chinese cabbage seedlings and allowed to lay eggs thereon. At 2 days after the release of the adults, the Chinese cabbage seedlings with laid eggs were dipped for about 30 seconds in agrochemical dispersions diluted to 500 ppm, each of which contained a different kind of oxime group-containing quinoline compound represented by the general formula (1) of the present invention as an active ingredient. After air-dried, the seedlings were kept in a thermostatic chamber at 25° C. At 6 days after the dip treatment, the number of hatched larvae per plot was counted, the mortality rate was calculated according to the formula shown below, and the insecticidal efficacy was evaluated according to the criteria of Test Example 2. This test was conducted in triplicate using 10 adults of Plutella xylostella per plot. Corrected mortality rate (%)=100×(Number of hatched larvae in a non-treatment plot−Number of hatched larvae in a treatment plot)/Number of hatched larvae in a non-treatment plot [Math. 3]

CCS(=O)(=O)c1cc2cc(/C(C)=N/OCC(F)(F)F)ccc2nc1-c1nc2cc(SC(F)(F)F)ccc2o1 [Compound 3-8, 1-(3-(ethylsulfonyl)-2-(5-(trifluoromethylthio)benzo[d]oxazol-2-yl)quinolin-6-yl)ethanone O-(2,2,2-trifluoroethyl)oxime]
mortality at 500 ppm [1]: 100%
mortality at 500 ppm [2]: 100%

CCS(=O)(=O)c1cc2ccc(/C=N/OCS(C)(=O)=O)cc2nc1-c1nc2cc(C(F)(F)F)cnc2n1C [Compound 2-25, 3-(ethylsulfonyl)-2-(3-methyl-6-(trifluoromethyl)-3H-imidazo[4,5-b]pyridin-2-yl)quinoline-7-carbaldehyde O-(methylsulfonylmethyl)oxime]
mortality at 500 ppm [1]: 100%
mortality at 500 ppm [2]: 100%

CCS(=O)(=O)c1cc2ccc(/C=N/OCSC)cc2nc1-c1nc2cc(C(F)(F)F)cnc2n1C [Compound 2-19, 3-(ethylsulfonyl)-2-(3-methyl-6-(trifluoromethyl)-3H-imidazo[4,5-b]pyridin-2-yl)quinoline-7-carbaldehyde O-(methylthiomethyl)oxime]
mortality at 500 ppm [1]: 100%
mortality at 500 ppm [2]: 100%

CCS(=O)(=O)c1cc2ccc(/C=N/OC[S+](C)[O-])cc2nc1-c1nc2cc(C(F)(F)F)cnc2n1C (centres unmarked) [Compound 2-24, 3-(ethylsulfonyl)-2-(3-methyl-6-(trifluoromethyl)-3H-imidazo[4,5-b]pyridin-2-yl)quinoline-7-carbaldehyde O-(methylsulfinylmethyl)oxime]
mortality at 500 ppm [1]: 100%
mortality at 500 ppm [2]: 100%

CCS(=O)(=O)c1cc2cc(/C(C)=N/O)ccc2nc1-c1nc2cc(SC(F)(F)F)ccc2o1 [Compound 3-2, 1-(3-(ethylsulfonyl)-2-(5-(trifluoromethylthio)benzo[d]oxazol-2-yl)quinolin-6-yl)ethanone oxime]
mortality at 500 ppm [1]: 100%
mortality at 500 ppm [2]: 100%

CCS(=O)(=O)c1cc2cc(/C=N/O)ccc2nc1-c1nc2cc(C(F)(F)F)cnc2n1C [Compound 1-1, (E)-3-(ethylsulfonyl)-2-(3-methyl-6-(trifluoromethyl)-3H-imidazo[4,5-b]pyridin-2-yl)quinoline-6-carbaldehyde oxime]
mortality at 500 ppm [1]: 100%
mortality at 500 ppm [2]: 100%

CCS(=O)(=O)c1cc2cc(/C=N/OCC(F)(F)F)ccc2nc1-c1nc2cc(C(F)(F)F)cnc2n1C [Compound 1-7, (E)-3-(ethylsulfonyl)-2-(3-methyl-6-(trifluoromethyl)-3H-imidazo[4,5-b]pyridin-2-yl)quinoline-6-carbaldehyde O-(2,2,2-trifluoroethyl)oxime]
mortality at 500 ppm [1]: 100%
mortality at 500 ppm [2]: 100%
